This is an account of results in patent publication US20250066389A1, “HETEROCYCLIC AMIDES AND METHODS OF USING THE SAME” (Rgenta Therapeutics, Inc., priority 2021, published 2025).

Structures can show the parent of a compound that is named as a salt.

This experiment concerns PMS1. Briefly: Mini-Gene Reporter Assay—PMS1 (firefly luciferase mini-gene reporter transiently transfected into HEK293 cells). The conditions noted are these: Homo sapiens, mini-gene firefly luciferase reporter in HEK293 cells; for activation at 5 µM: read-out: PMS1 % Effect at 5 uM. The class given is cell-based. The text has this: Example 76. Mini-Gene Reporter Assay—PMS1
Mini-gene reporter constructs for each target site can be constructed by first PCR amplifying the region-of-interest including the sequence of the alternatively skipped, sequences of the immediate upstream and downstream introns, and sequences of the immediate upstream and downstream exons. Then the 3′ end of the amplified sequence can be ligated to a firefly luciferase reporter gene and cloned into the pcDNA3.1 vector backbone. The final reporter construct can be transiently transfected into HEK293 cells using Lipofectamine 3000 transfection reagents. Compounds that can induce the inclusion of the skipped exon in the reporter construct would increase the reporter firefly luciferase activity.
Test compounds may be diluted in duplicates and dispensed into an assay plate. Transient mini-gene reporter cell line stock is resuspended and dispensed into the assay plate. Assay plates are then centrifuged and incubated. A luciferase reagent (e.g. ONE-Glo firefly luciferase reagent from Promega®) may be added to the assay plate and the luminescence (RLU) signals recorded. EC50 values may be determined by curve fitting in Levenberg-Marquardt algorithm.
In Table D below, A indicates a IC50 (μM)<1 μM, B indicates a IC50 (μM) 1 μM to <10 μM, and C indicates a IC50 (μM) 10 μM to <50 μM. In Table D below, A indicates a >75% Effect at 5 μM μM. B indicates a 50 to <75% Effect at 5 μM μM, and C indicates a <50% Effect at 5 μM.
In general terms: Reporter assays use an easily measured gene product as a stand-in for the process of interest.

In the case of `COc1cc2nc(C)cn2cc1C(=O)Nc1ccc(N2CCC3(CNC3)C2)cc1F` [Compound 152, N-(2-fluoro-4-(2,6-diazaspiro[3.4]octan-6-yl)phenyl)-7-methoxy-2-methylimidazo[1,2-a]pyridine-6-carboxamide], the activation at 5 µM is less than 50%.

With `COc1cc2nc(C)cn2cc1C(=O)Nc1ccc(N2CCNCC(O)C2)cc1F` (stereo not drawn) [Compound 153, N-(2-fluoro-4-(6-hydroxy-1,4-diazepan-1-yl)phenyl)-7-methoxy-2-methylimidazo[1,2-a]pyridine-6-carboxamide], the activation at 5 µM was less than 50%.

What is called IC50 is the concentration that gives 50% inhibition. Turning to `COc1cc2nc(C)cn2cc1C(=O)Nc1ccc(N2[C@H](C)CNC[C@@H]2C)cc1F` [Compound 154, N-(4-((28,6R)-2,6-dimethylpiperazin-1-yl)-2-fluorophenyl)-7-methoxy-2-methylimidazo[1,2-a]pyridine-6-carboxamide], the IC50 is less than 1000 nM.

Take `COc1cc2nc(C)cn2cc1C(=O)Nc1ccc(N2CC3CNC(C3)C2)cc1F` (stereo not drawn) [Compound 155, N-(4-(3,6-diazabicyclo[3.2.1]octan-3-yl)-2-fluorophenyl)-7-methoxy-2-methylimidazo[1,2-a]pyridine-6-carboxamide]: the IC50 is less than 1000 nM.

`COc1cc2nc(C)cn2cc1C(=O)Nc1ccc(N2CCNC(C)C2C)cc1F` (stereo not drawn) [Compound 157, N-(4-(2,3-dimethylpiperazin-1-yl)-2-fluorophenyl)-7-methoxy-2-methylimidazo[1,2-a]pyridine-6-carboxamide] came in with an IC50 of less than 1000 nM.

Turning to `COc1cc2nc(C)cn2cc1C(=O)Nc1ccc(N2CCNCCC2C)cc1F` (stereo not drawn) [Compound 158, N-(2-fluoro-4-(7-methyl-1,4-diazepan-1-yl)phenyl)-7-methoxy-2-methylimidazo[1,2-a]pyridine-6-carboxamide], the IC50 was less than 1000 nM.

As for `COc1cc2nc(C)cn2cc1C(=O)Nc1ccc(N2CCNC(CF)C2)cc1F` (stereo not drawn) [Compound 159, N-(2-fluoro-4-(3-(fluoromethyl)piperazin-1-yl)phenyl)-7-methoxy-2-methylimidazo[1,2-a]pyridine-6-carboxamide], the activation at 5 µM fell in the range of 50 to 75%.

`COc1cc2nc(C)cn2cc1C(=O)Nc1ccc(N2CCNC(C)CC2)cc1F` (stereo not drawn) [Compound 160, N-(2-fluoro-4-(5-methyl-1,4-diazepan-1-yl)phenyl)-7-methoxy-2-methylimidazo[1,2-a]pyridine-6-carboxamide] displayed a half-inhibitory concentration (IC50) of less than 1000 nM.

With `COc1cc2nc(C)cn2cc1C(=O)Nc1ccc(N2C[C@H]3CNC[C@H]3C2)cc1F` [Compound 161, N-(2-fluoro-4-((3aR,6aS)-hexahydropyrrolo[3,4-c]pyrrol-2(1H)-yl)phenyl)-7-methoxy-2-methylimidazo[1,2-a]pyridine-6-carboxamide], the activation at 5 µM was more than 75%.

For `COc1cc2nc(C)cn2cc1C(=O)Nc1ccc(N2CC(C)NCC2C)cc1F` (stereo not drawn) [Compound 163, N-(4-(2,5-dimethylpiperazin-1-yl)-2-fluorophenyl)-7-methoxy-2-methylimidazo[1,2-a]pyridine-6-carboxamide], the activation at 5 µM is more than 75%.

For the compound `CNC1CCN(c2ccc(NC(=O)c3cn4cc(C)nc4cc3OC)c(F)c2)CC1` [Compound 164, N-(2-fluoro-4-(4-(methylamino)piperidin-1-yl)phenyl)-7-methoxy-2-methylimidazo[1,2-a]pyridine-6-carboxamide], the activation at 5 µM was more than 75%.

The compound `COc1cc2nc(C)cn2cc1C(=O)Nc1ccc(N2CC3CCC(C2)N3)cc1F` [Compound 165, N-(4-(3,8-diazabicyclo[3.2.1]octan-3-yl)-2-fluorophenyl)-7-methoxy-2-methylimidazo[1,2-a]pyridine-6-carboxamide] yielded an IC50 of less than 1000 nM.

Take `CNCC1CCN(c2ccc(NC(=O)c3cn4cc(C)nc4cc3OC)c(F)c2)C1` (stereo not drawn) [Compound 166, N-(2-fluoro-4-(3-((methylamino)methyl)pyrrolidin-1-yl)phenyl)-7-methoxy-2-methylimidazo[1,2-a]pyridine-6-carboxamide]: the activation at 5 µM is less than 50%.

Regarding `CNC1CCCN(c2ccc(NC(=O)c3cn4cc(C)nc4cc3OC)c(F)c2)C1` (stereo not drawn) [Compound 167, N-(2-fluoro-4-(3-(methylamino)piperidin-1-yl)phenyl)-7-methoxy-2-methylimidazo[1,2-a]pyridine-6-carboxamide], the activation at 5 µM was in the range of 50 to 75%.

For `CCNC1CCN(c2ccc(NC(=O)c3cn4cc(C)nc4cc3OC)c(F)c2)C1` (stereo not drawn) [Compound 168, N-(4-(3-(ethylamino)pyrrolidin-1-yl)-2-fluorophenyl)-7-methoxy-2-methylimidazo[1,2-a]pyridine-6-carboxamide], the activation at 5 µM is more than 75%.

In the case of `COc1cc2nc(C)cn2cc1C(=O)Nc1ccc(N(C)C2CCNCC2)cc1F` [Compound 169, N-(2-fluoro-4-(methyl(piperidin-4-yl)amino)phenyl)-7-methoxy-2-methylimidazo[1,2-a]pyridine-6-carboxamide], the activation at 5 µM lay within 50 to 75%.

As to `COc1cc2nc(C)cn2cc1C(=O)Nc1ccc(N2CCC3CC2CN3)cc1F` (stereo not drawn) [Compound 170, N-(4-(2,6-diazabicyclo[3.2.1]octan-2-yl)-2-fluorophenyl)-7-methoxy-2-methylimidazo[1,2-a]pyridine-6-carboxamide], the activation at 5 µM was more than 75%.

Consider `COc1cc2nc(C)cn2cc1C(=O)Nc1ccc(N2CCC3(CCN3)C2)cc1F` (stereo not drawn) [Compound 171, N-(2-fluoro-4-(1,6-diazaspiro[3.4]octan-6-yl)phenyl)-7-methoxy-2-methylimidazo[1,2-a]pyridine-6-carboxamide], for which the activation at 5 µM was more than 75%.

For the compound `COc1cc2nc(C)cn2cc1C(=O)Nc1ccc(N2CCC3(CC2)COC(C)CN3)cc1F` (stereo not drawn) [Compound 172, N-(2-fluoro-4-(3-methyl-4-oxa-1,9-diazaspiro[5.5]undecan-9-yl)phenyl)-7-methoxy-2-methylimidazo[1,2-a]pyridine-6-carboxamide], the activation at 5 µM lay in the range of 50 to 75%.

On to `COc1cc2nc(C)cn2cc1C(=O)Nc1ccc(N2CCNC(CC(F)F)C2)cc1F` (stereo not drawn) [Compound 173, N-(4-(3-(2,2-difluoroethyl)piperazin-1-yl)-2-fluorophenyl)-7-methoxy-2-methylimidazo[1,2-a]pyridine-6-carboxamide], for which the 50% inhibitory concentration (IC50) was 1000 to 10000 nM.

In turn, `COc1cc2nc(C)cn2cc1C(=O)Nc1ccc(N2CCCNCC2)cc1F` [Compound 175, N-(4-(1,4-diazepan-1-yl)-2-fluorophenyl)-7-methoxy-2-methylimidazo[1,2-a]pyridine-6-carboxamide] returned an IC50 of less than 1000 nM.

`CNC1CCN(c2ccc(NC(=O)c3cn4cc(C)nc4cc3OC)c(F)c2)C1` (stereo not drawn) [Compound 176, N-(2-fluoro-4-(3-(methylamino)pyrrolidin-1-yl)phenyl)-7-methoxy-2-methylimidazo[1,2-a]pyridine-6-carboxamide] gave a 50% inhibitory concentration (IC50) of less than 1000 nM.

`COc1cc2nc(C)cn2cc1C(=O)Nc1ccc(N2CCNCC2C)cc1F` (stereo not drawn) [Compound 177, N-(2-fluoro-4-(2-methylpiperazin-1-yl)phenyl)-7-methoxy-2-methylimidazo[1,2-a]pyridine-6-carboxamide]: the half-maximal inhibitory concentration (IC50) was less than 1000 nM.

Take `COc1cc2nc(C)cn2cc1C(=O)Nc1ccc(N(C)C2CCNC2)cc1F` (stereo not drawn) [Compound 178, N-(2-fluoro-4-(methyl(pyrrolidin-3-yl)amino)phenyl)-7-methoxy-2-methylimidazo[1,2-a]pyridine-6-carboxamide]: the IC50 is less than 1000 nM.

Take `COc1cc2nc(C)cn2cc1C(=O)Nc1ccc(N2CCNC(C)C2)cc1F` (stereo not drawn) [Compound 179, N-(2-fluoro-4-(3-methylpiperazin-1-yl)phenyl)-7-methoxy-2-methylimidazo[1,2-a]pyridine-6-carboxamide]: the IC50 is less than 1000 nM.

In turn, `COc1cc2nc(C)cn2cc1C(=O)Nc1ccc(N(C)C2CNC2)cc1F` [Compound 180, N-(4-(azetidin-3-yl(methyl)amino)-2-fluorophenyl)-7-methoxy-2-methylimidazo[1,2-a]pyridine-6-carboxamide] came in with an IC50 of less than 1000 nM.

Take `COc1cc2nc(C)cn2cc1C(=O)Nc1cnc(N2CCN[C@@H](C)C2)cn1` [Compound 198, (S)-7-methoxy-2-methyl-N-(5-(3-methylpiperazin-1-yl)pyrazin-2-yl)imidazo[1,2-a]pyridine-6-carboxamide hydrochloride]: the IC50 was less than 1000 nM.

Compound `Cc1cn2cc(C(=O)Nc3ccc(N4CCN[C@@H](C)C4)nn3)c(OC(C)C)cc2n1` [Compound 199, (S)-7-isopropoxy-2-methyl-N-(6-(3-methylpiperazin-1-yl)pyridazin-3-yl)imidazo[1,2-a]pyridine-6-carboxamide] yielded an IC50 of less than 1000 nM.

As for `Cc1cn2cc(C(=O)Nc3ccc(N4CCNCC4)nn3)c(OC3CCC3)cc2n1` [Compound 205, 7-cyclobutoxy-2-methyl-N-(6-(piperazin-1-yl)pyridazin-3-yl)imidazo[1,2-a]pyridine-6-carboxamide hydrochloride], the concentration for half-maximal inhibition (IC50) was less than 1000 nM.

In turn, `Cc1cn2cc(C(=O)Nc3ccc(N4CCN[C@@H](C)C4)nn3)c(OC3CCOC3)cc2n1` (stereo partly drawn) [Compound 206, 2-methyl-N-(6-((S)-3-methylpiperazin-1-yl)pyridazin-3-yl)-7-((tetrahydrofuran-3-yl)oxy)imidazo[1,2-a]pyridine-6-carboxamide hydrochloride] gave an IC50 of less than 1000 nM.
